Series [1] has as its system SARS-CoV-2 stock strain NL/2020. Nature of the series: Antiviral activity in A549-ACE2 cells using viral antigen quantitation (SARS-CoV-2 N protein immunofluorescence). The class given is cell-based. The following applies: Severe acute respiratory syndrome coronavirus 2, MOI 0.005, 48 h; for EC50: concentration reducing SARS-CoV-2 infection efficiency by 50% vs vehicle; for EC90: concentration reducing SARS-CoV-2 infection efficiency by 90% vs vehicle.

Another series in a line: in vitro. The following applies: human.

Results on eleven molecules are retold here after patent EP4548976A1, “ANTIVIRAL COMPOUNDS AND COMPOSITIONS THEREFROM” (Consejo Superior De Investigaciones Científicas, priority 2023, dated 2025).

On to `COC(=O)c1cc(-c2ccc(N3CCOCC3)cc2)ccc1NC(C#N)[C@H](Cc1c[nH]c2ccc(-c3ccccc3)cc12)NC(=O)OC(C)(C)C` (mixture of isomers) [Example 5, Methyl 4-(((1RS,2S)-2-((tert-butoxycarbonyl)amino)-1-cyano-3-(5-phenyl-1H-indol-3-yl)propyl)amino)-4'-morpholino-[1,1'-biphenyl]-3-carboxylate], for which, in series [1], the concentration giving a half-maximal response (EC50) is 4 µM and the 90% effect concentration (EC90) worked out at 13 µM. This molecule also registered a CC50 in “in vitro” greater than 50 µM.
The matching figures for `COC(=O)c1cc(-c2ccc3[nH]ccc3c2)ccc1NC(C#N)[C@@H](Cc1c[nH]c2ccccc12)NC(=O)OC(C)(C)C` (mixture of isomers) [Example 27, Methyl 2-(((1RS,2R)-2-((tert-butoxycarbonyl)amino)-1-cyano-3-(1H-indol-3-yl)propyl)amino)-5-(1H-indol-5-yl)benzoate]: 7 µM, 9 µM and 35 µM.
Taken in the same sequence, the figures for `COC(=O)c1cc(C2=CCN(C(=O)OC(C)(C)C)CC2)ccc1NC(C#N)[C@H](Cc1c[nH]c2ccccc12)NC(=O)OC(C)(C)C` (mixture of isomers) [Example 14, tert-Butyl 4-(4-(((1RS,2S)-2-((tert-butoxycarbonyl)amino)-1-cyano-3-(1H-indol-3-yl)propyl)amino)-3-(methoxycarbonyl)phenyl)-3,6-dihydropyridine-1(2H)-carboxylate] were 7 µM, 16 µM and greater than 50 µM.
Regarding `COC(=O)c1cc(-c2cnn(CCN3CCOCC3)c2)ccc1NC(C#N)[C@H](Cc1c[nH]c2ccccc12)NC(=O)OC(C)(C)C` (mixture of isomers) [Example 25, Methyl 2-(((1RS,2S)-2-((tert-butoxycarbonyl)amino)-1-cyano-3-(1H-indol-3-yl)propyl)amino)-5-(1-(2-morpholinoethyl)-1H-pyrazol-4-yl)benzoate], in series [1], a half-maximal response (EC50) required 6 µM and the 90% effect level (EC90) was put at 9 µM. Also, the CC50 in the series “in vitro” was greater than 50 µM.
`COC(=O)c1cc(-c2ccc3c(c2)OCCO3)ccc1NC(C#N)[C@@H](Cc1c[nH]c2ccccc12)NC(=O)OC(C)(C)C` (mixture of isomers) [Example 28, Methyl 2-(((1RS,2R)-2-((tert-butoxycarbonyl)amino)-1-cyano-3-(1H-indol-3-yl)propyl)amino)-5-(2,3-dihydrobenzo[b][1,4]dioxin-6-yl)benzoate]: in series [1], it took 7 µM to reach a half-maximal effect (EC50) and the EC90 is 30 µM. In addition, the CC50 in “in vitro” was greater than 50 µM.
In series [1], `COC(=O)c1cc(-c2ccc3ocnc3c2)ccc1NC(C#N)[C@H](Cc1c[nH]c2ccccc12)NC(=O)OC(C)(C)C` (mixture of isomers) [Example 24, Methyl 5-(benzo[d]oxazol-5-yl)-2-(((1RS,2S)-2-((tert-butoxycarbonyl)amino)-1-cyano-3-(1H-indol-3-yl)propyl)amino)benzoate] registered an EC50 of 6 µM and an EC90 of 9 µM. Also, in the series “in vitro”, the CC50 was greater than 50 µM.
`COC(=O)c1cc(C2=CCCCC2)ccc1NC(C#N)[C@H](Cc1c[nH]c2ccccc12)NC(=O)OC(C)(C)C` (mixture of isomers) [Example 22, Methyl 4-(((1RS,2S)-2-((tert-butoxycarbonyl)amino)-1-cyano-3-(1H-indol-3-yl)propyl)amino)-2',3',4',5'-tetrahydro-[1,1'-biphenyl]-3-carboxylate]: in series [1], the EC50 was determined as 6 µM and the EC90 is 9 µM. The same molecule gave a CC50 in “in vitro” of 32 µM.
Turning to `CC(C)(C)OC(=O)N[C@H](Cc1c[nH]c2ccccc12)C(C#N)Nc1ccc(Br)cc1C(=O)c1ccccc1` (mixture of isomers) [Example 26, tert-Butyl ((1RS,2R)-1-((2-benzoyl-4-bromophenyl)amino)-1-cyano-3-(1H-indol-3-yl)propan-2-yl)carbamate], in series [1], the EC50 stood at 6 µM and the 90% effect level (EC90) was put at 28 µM. The molecule also had a CC50 in the series “in vitro” of 50 µM.
In series [1], `COC(=O)c1cc(-c2cc3ccccc3s2)ccc1NC(C#N)[C@H](Cc1c[nH]c2ccccc12)NC(=O)OC(C)(C)C` (mixture of isomers) [Example 13, Methyl 5-(benzo[b]thiophen-2-yl)-2-(((1RS,2S)-2-((tert-butoxycarbonyl)amino)-1-cyano-3-(1H-indol-3-yl)propyl)amino)benzoate] showed an EC50 of 1.85 µM and an EC90 of 5 µM. The molecule also yielded a CC50 in “in vitro” of 13 µM.
Take `COC(=O)c1cc(-c2ccnc(N3CCOCC3)c2)ccc1NC(C#N)[C@H](Cc1c[nH]c2ccccc12)NC(=O)OC(C)(C)C` (mixture of isomers) [Example 7, Methyl 2-(((1RS,2S)-2-((tert-butoxycarbonyl)amino)-1-cyano-3-(1H-indol-3-yl)propyl)amino)-5-(2-morpholinopyridin-4-yl)benzoate]: in series [1], the midpoint of the response, the EC50, lay at 1.1 µM and the concentration for an effect of 90% (EC90) amounted to 6 µM. Besides, the CC50 in the series “in vitro” was greater than 50 µM.
Turning to `COC(=O)c1cc(-c2ccc(N3CCOCC3)cc2)ccc1NC(C#N)[C@H](Cc1c[nH]c2cccc(-c3ccc(-c4cn(CCCOCCOCCOCCNC(=O)CCC[C@H]5SC[C@H]6NC(=O)N[C@H]65)nn4)cc3)c12)NC(=O)OC(C)(C)C` (mixture of isomers) [Example 20, Methyl 4-(((1RS,2S)-2-((tert-butoxycarbonyl)amino)-1-cyano-3-(4-(4-(1-(14-oxo-17-((3aR,4R,6aS)-2-oxohexahydro-1H-thieno[3,4-d]imidazol-4-yl)-4,7,10-trioxa-13-azaheptadecyl)-1H-1,2,3-triazol-4-yl)phenyl)-1H-indol-3-yl)propyl)amino)-4'-morpholino-[1,1'-biphenyl]-3-carboxylate], in series [1], it took 2 µM to reach a half-maximal effect (EC50) and the EC90 amounted to 50 µM. This molecule showed a CC50 in “in vitro” greater than 50 µM.
